{"source": "paper PMC3135787", "about": "(Antiviral research, 2011)", "key": {"HepG2 cells [1]": {"system": "HepG2 cells", "assay": "Lactic acid production, HepG2", "conditions": "7 days, normalised to rDNA"}, "[2]": {"system": "genotype 1a H77 subgenomic replicon", "assay": "HCV replicon assay, genotype 1a H77", "format": "cell-based", "conditions": "GT1a_H77 replicon, four days"}, "recombinant human ADAL1": {"target": "T1, recombinant human ADAL1 (Homo sapiens, UniProt Q6DHV7)", "T1 sequence (Q6DHV7 1-355)": "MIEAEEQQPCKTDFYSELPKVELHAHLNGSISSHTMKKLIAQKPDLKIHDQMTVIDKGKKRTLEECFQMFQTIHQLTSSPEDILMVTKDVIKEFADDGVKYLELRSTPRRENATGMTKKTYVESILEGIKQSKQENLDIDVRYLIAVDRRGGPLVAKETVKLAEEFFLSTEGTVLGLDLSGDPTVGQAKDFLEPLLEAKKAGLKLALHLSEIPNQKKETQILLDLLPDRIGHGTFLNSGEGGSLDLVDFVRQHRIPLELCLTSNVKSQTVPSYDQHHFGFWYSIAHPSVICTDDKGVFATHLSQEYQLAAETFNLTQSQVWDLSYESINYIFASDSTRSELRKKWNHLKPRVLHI", "assay": "ADAL1-mediated demethylation assay", "format": "biochemical", "conditions": "ADAL1, pH 6.7, 37°C"}, "[3]": {"system": "HCV 2a JFH-1 infectious virus", "assay": "Infectious virus assay, genotype 2a", "format": "cell-based", "conditions": "GT2a_JFH-1 infectious virus, En5-3 cells, three days"}, "[4]": {"system": "genotype 2a J6/JFH-1 subgenomic replicon", "assay": "HCV replicon assay, genotype 2a J6/JFH-1", "format": "cell-based", "conditions": "GT2a_JFH-1 replicon, four days"}, "Huh7 cells": {"system": "Huh7 cells", "assay": "8-day MTS cytotoxicity assay, Huh7", "format": "cell-based, human", "conditions": "Huh7, eight days, MTS"}, "CEM cells [5]": {"system": "CEM cells", "assay": "Mitochondrial COXII DNA and ribosomal DNA by real time PCR, CEM", "format": "cell-based, human", "conditions": "CEM cells; for CC90: fourteen days"}, "CEM cells [6]": {"system": "CEM cells", "assay": "Lactic acid production, CEM", "conditions": "7 days, normalised to rDNA"}, "[7]": {"system": "myeloid progenitor cells (CFU-GM)", "assay": "Human bone marrow stem cell toxicity, 14-day colony formation, myeloid", "format": "cell-based", "conditions": "read-out: IC50, myeloid progenitor cells (CFU-GM); 14-day colony formation assay"}, "[8]": {"system": "Clone A wild type replicon", "assay": "Cross resistance: Clone A wild type replicon, RT-PCR", "format": "cell-based, HCV", "conditions": "read-out: EC90 WT replicon; Clone A wild type replicon, RT-PCR assay"}, "[9]": {"system": "HCV 1a H77Sv2 infectious virus", "assay": "Infectious virus assay, genotype 1a", "format": "cell-based", "conditions": "GT1a_H77 infectious virus, En5-3 cells, three days"}, "[10]": {"system": "genotype 1b ET replicon, wild type", "format": "cell-based, HCV", "conditions": "read-out: EC90 WT replicon"}, "HepG2 cells [11]": {"system": "HepG2 cells", "assay": "8-day MTS cytotoxicity assay, HepG2", "format": "cell-based, human", "conditions": "HepG2, eight days, MTS"}, "CEM cells [12]": {"system": "CEM cells", "assay": "8-day MTS cytotoxicity assay, CEM", "format": "cell-based, human", "conditions": "CEM, eight days, MTS"}, "[13]": {"system": "erythroid progenitor cells (CFU-E and BFU-E)", "assay": "Human bone marrow stem cell toxicity, 14-day colony formation, erythroid", "format": "cell-based", "conditions": "read-out: IC50, erythroid progenitor cells (CFU-E and BFU-E); 14-day colony formation assay"}, "[14]": {"system": "ET replicon with NS5B M423T", "format": "cell-based, HCV"}, "[15]": {"system": "genotype 1b replicon (Con1 strain)", "assay": "HCV replicon assay, genotype 1b Con1", "format": "cell-based", "conditions": "GT1b_Con1 replicon, four days"}, "[16]": {"system": "Clone A replicon with NS5B S282T", "assay": "microbe, parasite or virus in culture", "format": "cell-based, HCV"}, "[17]": {"target": "human carboxylesterase 1 (CES-1) (Homo sapiens, UniProt P23141)", "sequence (P23141 18-567)": "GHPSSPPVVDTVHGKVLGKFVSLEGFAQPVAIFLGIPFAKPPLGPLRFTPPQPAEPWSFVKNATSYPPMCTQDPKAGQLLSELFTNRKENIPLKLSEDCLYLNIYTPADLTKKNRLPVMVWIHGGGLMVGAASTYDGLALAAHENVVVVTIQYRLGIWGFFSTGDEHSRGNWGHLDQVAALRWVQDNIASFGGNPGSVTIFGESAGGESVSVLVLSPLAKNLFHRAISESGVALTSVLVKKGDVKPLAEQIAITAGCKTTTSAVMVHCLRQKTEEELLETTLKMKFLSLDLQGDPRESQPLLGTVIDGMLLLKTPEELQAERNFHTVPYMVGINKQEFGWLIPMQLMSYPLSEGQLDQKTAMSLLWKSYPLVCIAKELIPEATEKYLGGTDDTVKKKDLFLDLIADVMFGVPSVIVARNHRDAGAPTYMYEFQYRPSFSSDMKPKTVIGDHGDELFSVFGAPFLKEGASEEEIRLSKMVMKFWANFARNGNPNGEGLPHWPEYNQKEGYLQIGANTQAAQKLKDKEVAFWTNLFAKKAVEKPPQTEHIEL", "assay": "Hydrolysis of the carboxyl ester by carboxylesterase 1", "format": "biochemical"}, "[18]": {"system": "ET replicon with NS5B S96T/N142T", "assay": "microbe, parasite or virus in culture", "format": "cell-based, HCV"}, "[19]": {"system": "primary human hepatocytes", "assay": "Metabolism of [3H]-PSI-353661 in primary human hepatocytes", "format": "in vitro ADME", "conditions": "5 μM [3H]-PSI-353661, up to 24 hours"}, "ET-Lunet replicon cells": {"system": "ET-Lunet replicon cells", "assay": "HCV replicon clearance and rebound study", "format": "cell-based", "conditions": "for clearance of replicon RNA (colony formation after 14 days G418 without compound): 14 days treatment"}, "BxPC3 cells": {"system": "BxPC3 cells", "assay": "8-day MTS cytotoxicity assay, BxPC3", "format": "cell-based, human", "conditions": "BxPC3, eight days, MTS"}, "[20]": {"target": "human cathepsin A (Cat A) (Homo sapiens, UniProt P10619)", "sequence (P10619 29-326 limits assumed)": "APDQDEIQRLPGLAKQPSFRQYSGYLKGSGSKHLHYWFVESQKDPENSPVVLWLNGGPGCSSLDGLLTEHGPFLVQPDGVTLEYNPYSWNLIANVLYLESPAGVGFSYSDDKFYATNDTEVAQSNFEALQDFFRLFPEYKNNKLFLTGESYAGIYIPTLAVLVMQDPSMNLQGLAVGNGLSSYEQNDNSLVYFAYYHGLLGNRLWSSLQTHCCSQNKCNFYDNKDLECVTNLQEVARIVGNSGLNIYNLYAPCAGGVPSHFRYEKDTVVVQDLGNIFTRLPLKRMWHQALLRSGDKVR", "sequence (P10619 327-480 limits assumed)": "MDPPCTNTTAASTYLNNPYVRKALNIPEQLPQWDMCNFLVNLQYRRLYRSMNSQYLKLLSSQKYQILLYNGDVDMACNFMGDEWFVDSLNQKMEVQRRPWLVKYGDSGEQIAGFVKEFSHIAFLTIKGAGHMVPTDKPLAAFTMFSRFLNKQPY", "assay": "Hydrolysis of the carboxyl ester by cathepsin A", "format": "biochemical", "conditions": "CatA, 100 μM substrate, 37 °C"}, "[21]": {"system": "ET replicon with NS5B P495L", "assay": "microbe, parasite or virus in culture", "format": "cell-based, HCV"}, "[22]": {"system": "ET replicon with NS5B C316Y", "assay": "microbe, parasite or virus in culture", "format": "cell-based, HCV"}, "HepG2 cells [23]": {"system": "HepG2 cells", "assay": "Mitochondrial COXII DNA and ribosomal DNA by real time PCR, HepG2", "format": "cell-based, human", "conditions": "HepG2 cells; for CC90: fourteen days"}, "[24]": {"system": "ET replicon with NS5B M414T", "assay": "microbe, parasite or virus in culture", "format": "cell-based, HCV"}}, "note": "Where “and” joins values, the source holds several entries; their conditions need not be identical. Equal values may be shown once. Read-outs that look alike come from different tables or passages of the source."}
{"smiles": "COc1nc(N)nc2c1ncn2[C@@H]1O[C@H](COP(=O)(N[C@@H](C)C(=O)OC(C)C)Oc2ccccc2)[C@@H](O)[C@@]1(C)F", "note": "(stereo partly drawn) [PSI-353661, (S)-2-{(S)-[(1R,4R,5R)-5-(2-amino-6-methoxy-purin-9-yl)-4-(R)-fluoro-3-hydroxy-4-methyl-tetrahydro-furan-2-ylmethoxy]-phenoxy-phosphorylamino}-propionic acid isopropyl ester]", "values": [{"measurement": "Lactic acid (Fold change from untreated cells)", "setting": "HepG2 cells [1]; 0.1 μM", "value": "1.2 ± 0.35"}, {"measurement": "Lactic acid (Fold change from untreated cells)", "setting": "HepG2 cells [1]; 1.0 μM", "value": "1.2 ± 0.29"}, {"measurement": "Lactic acid (Fold change from untreated cells)", "setting": "HepG2 cells [1]; 10 μM", "value": "1.1 ± 0.06"}, {"measurement": "Lactic acid (Fold change from untreated cells)", "setting": "HepG2 cells [1]; 50 μM", "value": "1.3 ± 0.31"}, {"measurement": "EC50", "setting": "[2]", "value": "0.0045 ± 0.0007", "unit": "µM"}, {"measurement": "EC90", "setting": "[2]", "value": "0.0105 ± 0.0007", "unit": "µM"}, {"measurement": "Km", "setting": "recombinant human ADAL1", "value": "No activity"}, {"measurement": "kcat", "setting": "recombinant human ADAL1", "value": "No activity"}, {"measurement": "kcat / Km", "setting": "recombinant human ADAL1", "value": "No activity"}, {"measurement": "EC50", "setting": "[3]", "value": 0.0016, "unit": "µM"}, {"measurement": "EC90", "setting": "[3]", "value": 0.0112, "unit": "µM"}, {"measurement": "EC50", "setting": "[4]", "value": "0.0065 ± 0.0021", "unit": "µM"}, {"measurement": "EC90", "setting": "[4]", "value": "0.014 ± 0.0014", "unit": "µM"}, {"measurement": "CC50", "setting": "Huh7 cells", "value": "80 ± 6", "unit": "µM"}, {"measurement": "effect on mitochondrial DNA content", "setting": "CEM cells [5]; up to 100 μM, 14 days", "value": "did not affect mitochondrial DNA content"}, {"measurement": "CC90", "setting": "CEM cells [5]; read-out: CC90 mtDNA", "value": "> 100", "unit": "µM"}, {"measurement": "CC90", "setting": "CEM cells [5]; read-out: CC90 rDNA", "value": "> 100", "unit": "µM"}, {"measurement": "Lactic acid (Fold change from untreated cells)", "setting": "CEM cells [6]; 0.1 μM", "value": "1.4 ± 0.36"}, {"measurement": "Lactic acid (Fold change from untreated cells)", "setting": "CEM cells [6]; 1.0 μM", "value": "1.4 ± 0.10"}, {"measurement": "Lactic acid (Fold change from untreated cells)", "setting": "CEM cells [6]; 10 μM", "value": "1.4 ± 0.31"}, {"measurement": "Lactic acid (Fold change from untreated cells)", "setting": "CEM cells [6]; 50 μM", "value": "1.3 ± 0.40"}, {"measurement": "IC50", "setting": "[7]", "value": "45 ± 2", "unit": "µM"}, {"measurement": "EC90", "setting": "[8]", "value": "0.009 µM and 0.0093 µM"}, {"measurement": "EC50", "setting": "[9]", "value": 0.0035, "unit": "µM"}, {"measurement": "EC90", "setting": "[9]", "value": 0.0086, "unit": "µM"}, {"measurement": "EC90", "setting": "[10]", "value": "0.012 ± 0.004", "unit": "µM"}, {"measurement": "CC50", "setting": "HepG2 cells [11]", "value": "> 100", "unit": "µM"}, {"measurement": "CC50", "setting": "CEM cells [12]", "value": "> 100", "unit": "µM"}, {"measurement": "IC50", "setting": "[13]", "value": "> 50", "unit": "µM"}, {"measurement": "EC90 fold change", "setting": "[14]", "value": 0.8}, {"measurement": "EC90", "setting": "[14]; read-out: EC90 Mutant replicon, M423T, luciferase-based assay", "value": "0.0097 ± 0.0019", "unit": "µM"}, {"measurement": "EC50", "setting": "[15]", "value": "0.003 ± 0.0014", "unit": "µM"}, {"measurement": "EC90", "setting": "[15]", "value": "0.0085 ± 0.0007", "unit": "µM"}, {"measurement": "EC90 fold change", "setting": "[16]", "value": 1.5}, {"measurement": "EC90", "setting": "[16]; read-out: EC90 Mutant replicon, S282T, RT-PCR assay", "value": "0.014 ± 0.0026", "unit": "µM"}, {"measurement": "rate of hydrolysis (specific activity)", "setting": "[17]; CES1, 100 μM substrate, 37 °C, not time-dependent", "value": "~0.034", "unit": "µmol/min/mg"}, {"measurement": "fraction converted to product PSI-353131", "setting": "[17]; incubation with CES1", "value": "~10", "unit": "%"}, {"measurement": "EC90 fold change", "setting": "[18]", "value": 0.7}, {"measurement": "EC90", "setting": "[18]; read-out: EC90 Mutant replicon, S96T/N142T, luciferase-based assay", "value": "0.0087 ± 0.0037", "unit": "µM"}, {"measurement": "intracellular level of parent compound", "setting": "[19]", "value": "undetectable"}, {"measurement": "reduction of HCV replicon RNA", "setting": "ET-Lunet replicon cells; 8 nM (2× EC50), end of first 14-days, no G418", "value": 1, "unit": "log"}, {"measurement": "decrease in HCV replicon RNA", "setting": "ET-Lunet replicon cells; 20 nM dose, end of first 14-days, no G418", "value": "> 4", "unit": "log"}, {"measurement": "clearance of replicon RNA (colony formation after 14 days G418 without compound)", "setting": "ET-Lunet replicon cells; 20 nM", "value": "partial clearance"}, {"measurement": "HCV RNA level", "setting": "ET-Lunet replicon cells; 40 and 80 nM doses, by day 10", "value": "undetectable"}, {"measurement": "clearance of replicon RNA (colony formation after 14 days G418 without compound)", "setting": "ET-Lunet replicon cells; 40 and 80 nM", "value": "completely eliminated the replicon"}, {"measurement": "EC50", "setting": "ET-Lunet replicon cells; read-out: EC50 value, ET-Lunet replicon cells, value used to set clearance doses", "value": 0.004, "unit": "µM"}, {"measurement": "CC50", "setting": "BxPC3 cells", "value": "> 100", "unit": "µM"}, {"measurement": "specific activity of hydrolysis to PSI-353131", "setting": "[20]", "value": 0.80, "unit": "µmol/min/mg"}, {"measurement": "EC90 fold change", "setting": "[21]", "value": 1.0}, {"measurement": "EC90", "setting": "[21]; read-out: EC90 Mutant replicon, P495L, luciferase-based assay", "value": "0.012 ± 0.00034", "unit": "µM"}, {"measurement": "EC90 fold change", "setting": "[22]", "value": 0.8}, {"measurement": "EC90", "setting": "[22]; read-out: EC90 Mutant replicon, C316Y, luciferase-based assay", "value": "0.0098 ± 0.0035", "unit": "µM"}, {"measurement": "effect on mitochondrial DNA content", "setting": "HepG2 cells [23]; up to 100 μM, 14 days", "value": "did not affect mitochondrial DNA content"}, {"measurement": "CC90", "setting": "HepG2 cells [23]; read-out: CC90 mtDNA", "value": "> 100", "unit": "µM"}, {"measurement": "CC90", "setting": "HepG2 cells [23]; read-out: CC90 rDNA", "value": "> 100", "unit": "µM"}, {"measurement": "EC90 fold change", "setting": "[24]", "value": 1.0}, {"measurement": "EC90", "setting": "[24]; read-out: EC90 Mutant replicon, M414T, luciferase-based assay", "value": "0.012 ± 0.0022", "unit": "µM"}]}
